# Literature values in US20070231358A1, “INTRAVAGINAL TREATMENT OF VAGINAL INFECTIONS WITH METRONIDAZOLE COMPOSITIONS” (Tolmar, Inc., priority 2004, published 2007).
# Read-outs that look alike come from different tables or passages of the source.
# How the values were obtained:
# [1] = test system: bacterial vaginosis; settings: oral route; 400 to 500 mg twice daily for three to seven days or 2 grams single dose
# [2] = test system: bacterial vaginosis; settings: for Cured patients out of 19: four weeks after initiation; for Cure rate (%): four weeks after initiation of therapy
# [3] = after a single oral dose of 2 grams
# [4] = oral 400 mg morning and evening for seven days
# [5] = vaginal insert 500 mg every evening for seven days
smiles,measurement,setting,value
"Cc1ncc([N+](=O)[O-])n1CCO [metronidazole, 1-(2-hydroxyethyl)-2-methyl-5-nitroimidazole]",Cure rates,[1],80-90%
same,Side effects,[2]; intravaginal use as the 500 mg insert,No side effects were reported
same,Cured patients out of 19,[2]; [4],14
same,Cure rate (%),[2]; [4],74%
same,Cured patients out of 19,[2]; [5],15
same,Cure rate (%),[2]; [5],79%
same,Lactate-producing microorganisms (Lactobacilli and aerobic Streptococci) after treatment,[2]; vaginal versus oral treatment,found more frequently after vaginal than after oral treatment
same,Concentration of metronidazole in the vaginal fluid,[3],low concentration
